Experiments:
Format in all cases: functional
A549 [1] = experiment: Percent growth inhibition of A-549 human lung adenocarcinoma at 10e-6 M compound concentration in standard MTT assay
A549 [2] = experiment: Percent growth inhibition of A-549 human lung adenocarcinoma at 10e-7 M compound concentration in standard MTT assay
A549 [3] = experiment: Percent growth inhibition of A-549 human lung adenocarcinoma at 10e-8 M compound concentration in standard MTT assay
P388 [4] = experiment: Percent growth inhibition of P388 mouse leukemia at 10e-6 M compound concentration in standard MTT assay
P388 [5] = experiment: Percent growth inhibition of P388 mouse leukemia at 10e-7 M compound concentration in standard MTT assay
P388 [6] = experiment: Percent growth inhibition of P388 mouse leukemia at 10e-8 M compound concentration in standard MTT assay

SMILES | inhibition at 1 µM (A549 [1]) [%] | inhibition at 0.1 µM (A549 [2]) [%] | inhibition at 0.01 µM (A549 [3]) [%] | inhibition at 1 µM (P388 [4]) [%] | inhibition at 0.1 µM (P388 [5]) [%] | inhibition at 0.01 µM (P388 [6]) [%]
CC(=O)OC1C(O[C@H]2CC[C@@]3(C)C(=CCC4C3CC[C@@]3(C)C4C[C@@H](OC4OCC(O)C(OC5OCC(O)C(O)C5OC(C)c5ccccc5)C4OC(C)=O)[C@]3(O)[C@H](C)C(=O)CCC(C)C)C2)OCC(O)C1OC1OCC(O)C(O)C1OC(C)c1ccccc1 (stereo not given in full) | 80.9 | 6.7 | 0.7 | 90.7 | 52 | 
CC(=O)OC[C@@H](C)[C@@]1(O)[C@H](OC2OCC(O)C(OC3OCC(O)C(O)C3OC(C)c3ccccc3)C2OC(C)=O)CC2C3CC=C4C[C@@H](OC(C)=O)CC[C@]4(C)C3CC[C@@]21C (stereo not given in full) | 6.2 | 0.8 |  | 20.4 | 15.5 | 17.9
CC(=O)OC1C(O[C@@H]2CC3C4CC=C5C[C@@H](O)CC[C@]5(C)C4CC[C@]3(C)[C@@]2(O)[C@H](C)C(=O)CCC(C)C)OCC(O)C1OC1OCC(O)C(O)C1OC(C)c1ccccc1 (stereo not given in full) | 53.8 | 29.5 |  | 66.7 | 35.4 | 15.5

Reference: ChEMBL document CHEMBL1133911, “Synthesis of OSW-1 analogues and a dimer and their antitumor activities” (Bioorg Med Chem Lett, 2001)
